We go through five compounds from US11597745B2, “β-modified phosphoric acid compound precursor, β-modified phosphoric acid compound, reaction inhibitor and medicine containing the same, and method for inhibiting reaction” (priority 2018, dated 2023).

For data set [1], the system named is HIV M184V. The data set can be described thus: Anti-HIV activity measurement, TZM-bl cells, luciferase. The note with it: Human immunodeficiency virus 1, TZM-bl, read-out: EC50 for HIV. The format is cell-based, HIV-1. The protocol:
(§1) TZM-bl cells were cultured in a medium in which fetal bovine serum (Japan Bio Serum) having a final concentration of 10% had been added into Dulbecco's modified Eagle's Medium (DMEM) (SIGMA/Cat. No. D5796), under the conditions of 37° C. and 5% CO2. TZM-bl cells were plated in a 96-well microplate (1.3×10^4 cells/100 μL DMEM+10% FBS). On the following day, a drug solution, and HIV-1 (NL4-3, 10 ng) were added to the culture medium in this order. After two days, […] of culture supernatant was removed, 100 μL of 1×Steady Glo (Promega/Cat. No. E2510) was added into the resultant medium, luciferase in 80 μL of scraped cell lysate was quantified with a dedicated plate (Coster/Cat. No. 3912) IESEL, VERITAS Microplate Luminometer (Promega), and the anti-HIV-1 activity (EC50) of the drug was calculated. Experiments were performed on multiple compounds by using various types of viruses. In Table (A), the “AZT” means azidothymidine, the “Lamivudine” means lamivudine, and the “Didanosine” means didanosine.

The subject of data set [2] is HIV M41L/T69SSG/T215Y. The data set is described as above. The format is cell-based, HIV-1. The note with it: for EC50: Human immunodeficiency virus 1, TZM-bl, read-out: EC50 for HIV. The protocol: as §1
In data set [3] the test system is HIV M41L/T215Y. The data set is described as above. The format is cell-based, HIV-1. The note with it: Human immunodeficiency virus 1, TZM-bl, read-out: EC50 for HIV. The protocol:
as §1

Data set [4] deals with HIV-1 (NL4-3) WT. The description is as above. The conditions noted are these: for EC50: Human immunodeficiency virus 1, NL43, TZM-bl, read-out: EC50 for HIV. The format is cell-based. The protocol: as §1
Data set [5] relates to HBV (genotype C) in EB-HBCe cells. The data set can be described thus: Anti-HBV activity: HBV DNA of viral particles in culture supernatant of EB-HBCe cells by qPCR. The format is cell-based, hepatitis B virus. The note with it: FIG. 5; for anti-HBV activity (HBV DNA): various final concentrations, 9 days, activity higher at higher concentration. The protocol: A cell line EB-HBCe, which is derived from a human liver cancer cell HuH-7 and in which the HBV genome (genotype C) constantly replicates, was plated in a 24-well plate, respective compound were added at various final concentrations into the plate, and the cell line EB-HBCe was cultured for 9 days. During the culture, the medium was replaced with new one and the above compounds were added at the same concentration into the plate, every three days.
The culture supernatant was collected, the viral particles were precipitated by the addition of a PNE solution (8.45% PEG 6000, 0.445 M NaCl, 13 mM EDTA), and then the nucleic acids outside the particles were removed by the treatment with DNase I (TAKARA BIO INC.) and RNase A (TAKARA BIO INC.) at 37° C. for 1 hour. Further, after the overnight treatment with Proteinase K, the DNA was extracted with phenol/chloroform, and precipitated with ethanol. The precipitate was solubilized, and then the HBV DNA was quantitatively measured by using SYBR qPCR Mix Kit (TOYOBO CO., LTD.). In FIG. 5, the “SelenoA” indicates the results of addition of compound 13, and the “entecavir” indicates the result of addition of entecavir.

Data set [6] deals with MT-4 cells. The data set can be described thus: Cytotoxicity evaluation, MTT assay. The format is cell-based. The conditions noted are these: comparison in words from Table 1 (B). The procedure:
(§2) In MTT assay, Celltiter 96 Non-radioactive Cell Proliferation Assay (Promega) was used. MT-4 cells were infected with HIV-1 NL4-3 at multiplicity of infection (MOI)=0.001. HIV-1-infected (37° C., 1-1.5 hours) or -uninfected MT-4 cells (2.5×10^5/ml, 100 μL) were aliquoted into a 96-well microplate (final DMSO concentration: 0.5%), and the culture was started at 37° C. and 5% CO2. On the 5th day of the culture, the culture supernatant (100 μL) was removed, 15 μL of dye solution (MTT reagent) was added into each well, and the cells were cultured in a CO2 incubator for 1 hour. Subsequently, 100 μL of solubilization solution/stop mix was added into each well, mixed sufficiently, and the obtained mixture was left to stand at 4° C. overnight. After returning the temperature of the plate to room temperature, DD570/690 was measured with a spectrophotometer (BIO-TEK ELx808, CC50).
Background: Tetrazolium assays rely on reduction of a dye to a coloured formazan, in cell work by metabolically active cells.

The nature of data set [7]: Cytotoxicity evaluation, MTT assay. The conditions noted are these: human; MT-4 cells, MTT, 5th day of culture. The class given is cell-based. The procedure: as §2

The structures appear in SMILES notation.

In general, EC50 refers to the concentration that produces a half-maximal response. In the case of `O=c1[nH]cnc2c1ncn2[C@H]1CC[C@@H](CO)O1` [Didanosine, didanosine, reference compound], the EC50 in data set [1] was 8.3 µM; in data set [2], 17 µM; in data set [3], 5600 nM; in data set [4], 3200 nM.
On to `Nc1ccn([C@@H]2CS[C@H](CO)O2)c(=O)n1` [Lamivudine, lamivudine, reference compound], for which the EC50 in data set [1] is > 100 µM; in data set [2], 24 µM; in data set [3] it was 1700 nM; in data set [4], 1200 nM.
In the case of `CCCSSC1[C@@H](O)[C@@H](COP(O)(=N[C@@H](C)C(=O)OC(C)C)Oc2ccccc2)O[C@H]1n1cnc2c(N)ncnc21` (some centres unmarked) [Pro A], the “anti-HBV activity (HBV DNA)” value in data set [5] was “showed anti-HBV activity”.
The CC50 is the concentration giving 50% cytotoxicity. Low values mean greater toxicity to the cells, high ones lower toxicity to the cells. In the case of `C[Se]C1[C@@H](O)[C@@H](COP(O)(=N[C@@H](C)C(=O)OC(C)C)Oc2ccccc2)O[C@H]1n1cnc2c(N)ncnc21` (some centres unmarked) [Pro SelenoA], the EC50 in data set [1] was found to be 2 µM; in data set [2], 1.4 µM; in data set [3], 1300 nM; in data set [4] it was 980 nM. Moreover, in data set [2] (HIV-type M41L/T69SSG/T215Y, comparison in words from Table 1 (A)), the “anti-HIV activity compared with AZT” value is reported as “more excellent anti-HIV activity”. Also, in data set [4] (comparison in words from Table 1 (A), all virus types), the “anti-HIV activity compared with Lamivudine and Didanosine” value is reported as “higher anti-HIV activity”. In addition, the “anti-HBV activity, ranking among SelenoA, Pro SelenoA and Pro A” value in data set [5] (concentration of addition 10 μM) is recorded as “highest anti-HBV activity among these three kinds”. Further, the “anti-HBV activity (HBV DNA)” value in data set [5] is “showed anti-HBV activity”. Further, the “toxicity compared with AZT” value in data set [6] is “lower”. In addition, the CC50 at 5 day in data set [7] was > 100 µM.
Regarding `Nc1ncnc2c1ncn2[C@@H]1O[C@H](CO)[C@@H](O)[C@H]1[SeH]` [SelenoA, Seleno adenosine], the “anti-HBV activity (HBV DNA)” value in data set [5] is “showed anti-HBV activity”.
